From patent publication US5861424A, “Composition and method for treating cancer” (priority 1995, dated 1999)
Like-named read-outs stand apart in the source and are kept apart here.

Columns and labels:
[1] = tested on: human colon carcinoma cell line CX-1; assay: Colony formation assay, human colon carcinoma CX-1; assay type: cell-based; conditions: for IC50: Homo sapiens, Colon carcinoma cell; for IC50 / CX-1 (IC50): 24 h treatment, colony count after 7 to 10 days; for Selectivity (ratio of IC50 for CV-1 and IC50 for CX-1): CV-1/CX-1
[2] = tested on: human pancreatic carcinoma CRL 1420 cell line; assay: Colony formation assay, human pancreatic carcinoma CRL 1420; assay type: cell-based; conditions: Table VII; for IC50: Homo sapiens, 24 h; for Selectivity (CV-1 IC50 / CRL-1420 IC50): CV-1/CRL-1420
Excerpt: (§1) The control received culture media only.
The Selectivity values, CRL 1420 values and CV-1 values for compounds of the General Formulas (1) to (6) used in the present invention are shown in Table VII below.

[3] = tested on: normal monkey kidney epithelial cell line CV-1; assay: Colony formation assay, normal monkey kidney epithelial cells CV-1; conditions: for IC50: Primates, Epithelial cell;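 on all read-outs here: colonies visualized by crystal violet staining, incubation at 37 °C, IC50 relative to untreated wells given culture medium alone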
Experimental: Human colon carcinoma cell line CX-1 or normal monkey kidney epithelial cell line CV-1 was chosen as representatives of cancer cells and normal cells, respectively. […] CX-1 cells (2,000 cells/well) and CV-1 cells (1,000 cells/well) were plated in 24-well plastic culture plates. […] The control received culture media only. Cells were treated with compounds of General Formulas (1) to (6) at 37° C. for 24 hours. After rinsing with fresh culture medium three times, the cells were further incubated at 37° C. for 7 to 10 days. Cell colonies were fixed and stained with 2% crystal violet in 70% ethanol for 10 minutes and rinsed in water. […] The selectivity is defined as the ratio of IC50 for CV-1 and IC50 for CX-1.

[4] = tested on: human bladder carcinoma EJ cell line; assay: Colony formation assay, human bladder carcinoma EJ; assay type: cell-based; conditions: for IC50: Homo sapiens, EJ, 24 h, read-out: EJ (IC50); for Selectivity (CV-1 IC50 / EJ IC50): CV-1/EJ
Excerpt: as §1

[5] = tested on: human melanoma LOX cell line; assay: Colony formation assay, human melanoma LOX; assay type: cell-based; conditions: for IC50: Homo sapiens, LOX, 24 h, read-out: LOX (IC50); for Selectivity (CV-1 IC50 / LOX IC50): CV-1/LOX
Excerpt: as §1

[6] = tested on: human breast carcinoma MCF-7 cell line; assay: Colony formation assay, human breast carcinoma MCF-7; assay type: cell-based; conditions: Table VI; for IC50: Homo sapiens, MCF7, 24 h, read-out: MCF-7 (IC50); for Selectivity (CV-1 IC50 / MCF-7 IC50): CV-1/MCF-7
Excerpt: as §1
The Selectivity values, MCF-7 values and CV-1 values for compounds of the General Formulas (1) to (6) used in the present invention are shown in Table VI below.

[7] = Table III, read-out: CX-1 (IC50)
[8] = read-out: CV-1 (IC50), Table III, 24 h treatment, colony count after 7 to 10 days
[9] = read-out: CV-1 (IC50), Table VII
[10] = read-out: CV-1 (IC50), Table IV
[11] = read-out: CX-1 (IC50), Table III
[12] = Table III, 24 h treatment, colony count after 7 to 10 days

Structure (SMILES) | IC50 [1, 7] [µg/mL] | Selectivity (ratio of IC50 for CV-1 and IC50 for CX-1) ([1]; Table III) | IC50 [3, 8] [µg/mL] | IC50 [1, 11] [µg/mL] | further results
CCN1C(=CC=c2sc(=Cc3ccc4ccccc4[n+]3CC)n(CC)c2=O)Sc2ccc3ccccc3c21 [Compound 40] | 0.02 | 257 | 5.14 | – | IC50 ([2]; 24 h treatment): 0.05 µg/mL; IC50 [3, 9]: 2 µg/mL
CCN1C(C)=CSC1=CC=c1sc(=Cc2sc3c4ccccc4ccc3[n+]2CC)n(CC)c1=O [Compound 97] | 0.01 | 200 | 2 | – | IC50 ([4]; Table IV, 24 h treatment): 0.013 µg/mL; Selectivity (CV-1 IC50 / EJ IC50) ([4]; Table IV): 154; IC50 [5]: 0.015 µg/mL; Selectivity (CV-1 IC50 / LOX IC50) ([5]; Table V): 133; IC50 [3, 10]: 2 µg/mL; IC50 ([3]; read-out: CV-1 (IC50), Table V): 2 µg/mL
CCN1CCSC1=CC=c1sc(=Cc2sc3ccc(Cl)cc3[n+]2CC)n(CC)c1=O [Compound 123] | – | 200 | 20 | 0.1 | IC50 ([4]; Table IV, 24 h treatment): 0.13 µg/mL; Selectivity (CV-1 IC50 / EJ IC50) ([4]; Table IV): 154; IC50 ([2]; 24 h treatment): 0.13 µg/mL; Selectivity (CV-1 IC50 / CRL-1420 IC50) [2]: 154; IC50 [3, 10]: 20 µg/mL; IC50 [3, 9]: 20 µg/mL
CCN1CCSC1=CC=c1sc(=Cc2sc3ccc(C)cc3[n+]2CC)n(CC)c1=O [Compound 124] | – | 167 | 5 | 0.03 | IC50 ([4]; Table IV, 24 h treatment): 0.05 µg/mL; Selectivity (CV-1 IC50 / EJ IC50) ([4]; Table IV): 100; IC50 ([5]; Table V, 24 h treatment): 0.04 µg/mL; Selectivity (CV-1 IC50 / LOX IC50) ([5]; Table V): 125; IC50 ([2]; 24 h treatment): 0.04 µg/mL; Selectivity (CV-1 IC50 / CRL-1420 IC50) [2]: 125; IC50 [3, 10]: 5 µg/mL; IC50 ([3]; read-out: CV-1 (IC50), Table V): 5 µg/mL; IC50 [3, 9]: 5 µg/mL
CCn1c(=Cc2sc3ccccc3[n+]2CC)sc(=CC=C2SCCN2C)c1=O [Compound 141] | 0.05 | 400 | 20 | – | IC50 ([5]; Table V, 24 h treatment): 0.064 µg/mL; Selectivity (CV-1 IC50 / LOX IC50) ([5]; Table V): 312; IC50 ([6]; 24 h treatment): 0.184 µg/mL; Selectivity (CV-1 IC50 / MCF-7 IC50) [6]: 109; IC50 ([2]; 24 h treatment): 0.045 µg/mL; Selectivity (CV-1 IC50 / CRL-1420 IC50) [2]: 444; IC50 ([3]; read-out: CV-1 (IC50), Table V): 20 µg/mL; IC50 ([3]; read-out: CV-1 (IC50), Table VI): 20 µg/mL; IC50 [3, 9]: 20 µg/mL
CCN1C(=CC=c2sc(=Cc3sc4ccccc4[n+]3CC)n(CC)c2=O)Sc2ccc3ccccc3c21 [Compound 178] | – | 200 | – | – | CX-1 (IC50) ([1]; Table III): 0.01 µg/mL; MCF-7 (IC50) ([6]; 24 h treatment): 0.0046 µg/mL; Selectivity (CV-1 IC50 / MCF-7 IC50) [6]: 435; CRL-1420 (IC50) ([2]; 24 h treatment): 0.013 µg/mL; Selectivity (CV-1 IC50 / CRL-1420 IC50) [2]: 154; CV-1 (IC50) [3, 12]: 2 µg/mL; CV-1 (IC50) ([3]; Table VI): 2 µg/mL; CV-1 (IC50) ([3]; Table VII): 2 µg/mL
CCn1c(=Cc2oc3c4ccccc4ccc3[n+]2CC)sc(=CC=C2N(C)c3ccccc3C2(C)C)c1=O [Compound 208] | 0.01 | 600 | 6 | – | IC50 ([5]; Table V, 24 h treatment): 0.039 µg/mL; Selectivity (CV-1 IC50 / LOX IC50) ([5]; Table V): 154; IC50 ([3]; read-out: CV-1 (IC50), Table V): 6 µg/mL
CCn1c(=Cc2sc3ccc(Cl)cc3[n+]2CC)sc(=CC=C2N(C)c3ccccc3C2(C)C)c1=O [Compound 214] | – | 267 | – | 0.03 | IC50 ([4]; Table IV, 24 h treatment): 0.04 µg/mL; Selectivity (CV-1 IC50 / EJ IC50) ([4]; Table IV): 200; IC50 ([5]; Table V, 24 h treatment): 0.04 µg/mL; Selectivity (CV-1 IC50 / LOX IC50) ([5]; Table V): 200; IC50 ([2]; 24 h treatment): 0.04 µg/mL; Selectivity (CV-1 IC50 / CRL-1420 IC50) [2]: 200; IC50 [3, 10]: 8 µg/mL; IC50 ([3]; read-out: CV-1 (IC50), Table V): 8 µg/mL; IC50 [3, 9]: 8 µg/mL
CCN1C(=CC=c2sc(=Cc3sc4c5ccccc5ccc4[n+]3CC)n(CC)c2=O)C(C)(C)c2cc(Cl)ccc21 [Compound 220] | 0.04 | 125 | 5 | – | –
CCN1C(=CC=c2sc(=Cc3sc4ccc5ccccc5c4[n+]3CC)n(CC)c2=O)N(CC)c2ccccc21 [Compound 234] | – | 333 | – | 0.03 | IC50 ([5]; Table V, 24 h treatment): 0.03 µg/mL; Selectivity (CV-1 IC50 / LOX IC50) ([5]; Table V): 333; IC50 ([6]; 24 h treatment): 0.05 µg/mL; Selectivity (CV-1 IC50 / MCF-7 IC50) [6]: 200; IC50 ([2]; 24 h treatment): 0.03 µg/mL; Selectivity (CV-1 IC50 / CRL-1420 IC50) [2]: 333; IC50 ([3]; read-out: CV-1 (IC50)): 10 µg/mL
CCN1C(=CC=c2sc(=Cc3sc4c5ccccc5ccc4[n+]3CC)n(CC)c2=O)N(CC)c2cc(Cl)ccc21 [Compound 235] | 0.05 | > 400 | > 20 | – | IC50 [4]: 0.02 µg/mL; Selectivity (CV-1 IC50 / EJ IC50) ([4]; Table IV): 500; IC50 ([3]; read-out: CV-1 (IC50)): 10 µg/mL
CCOc1ccc2c(c1)C=CC(=CC=c1sc(=Cc3sc4c5ccccc5ccc4[n+]3CC)n(CC)c1=O)N2CC [Compound 252] | – | > 200 | > 20 | 0.1 | –
CCN1C(=CC=c2sc(=Cc3sc4c5ccccc5ccc4[n+]3CC)n(CC)c2=O)C=Cc2cc(Cl)ccc21 [Compound 253] | 0.04 | > 500 | > 20 | – | –
CCN1C(=CC=c2sc(=Cc3sc4c5ccccc5ccc4[n+]3CC)n(CC)c2=O)C=Cc2cc(C)ccc21 [Compound 254] | – | 100 | – | 0.1 | IC50 ([3]; read-out: CV-1 (IC50)): 10 µg/mL
CCN1C=CC(=CC=c2sc(=Cc3sc4ccc5ccccc5c4[n+]3CC)n(CC)c2=O)c2ccccc21 [Compound 307] | 0.02 | 150 | 3 | – | –
CCN1C=CC(=CC=c2sc(=Cc3sc4ccccc4[n+]3CC)n(CC)c2=O)C=C1 [Compound 317] | – | 100 | 20 | 0.2 | –

Structure (SMILES) | IC50 [1, 7] [µg/mL] | Selectivity (ratio of IC50 for CV-1 and IC50 for CX-1) ([1]; Table III) | IC50 [3, 8] [µg/mL] | IC50 [1, 11] [µg/mL] | further results
CCn1c(=Cc2sc3cc(Cl)c(Cl)cc3[n+]2CC)sc(=CC=C2Sc3ccc4ccccc4c3N2C)c1=O [Compound 383] | – | 200 | 20 | 0.1 | –
CCn1c(=Cc2cccc[n+]2CC)sc(=CC=C2Sc3ccc4ccccc4c3N2C)c1=O [Compound 385] | – | 100 | 20 | 0.2 | –
CCN1C(C)=CSC1=CC=c1sc(=C2CCC[n+]3c2sc2ccccc23)n(CC)c1=O [Compound 386] | – | 100 | – | 0.1 | IC50 ([3]; read-out: CV-1 (IC50)): 10 µg/mL
CCN1C(C)=CSC1=CC=c1sc(=Cc2oc3cc(C)c(C)cc3[n+]2CC)n(CC)c1=O [Compound 388] | – | 261 | – | 0.03 | IC50 ([3]; read-out: CV-1 (IC50)): 8 µg/mL
CCN1C(C)=CSC1=CC=c1sc(=C2CCC[n+]3c2sc2ccccc23)n(CC)c1=O [Compound 389] | – | 188 | 15 | – | CX-1 (IC50) ([1]; Table III): 0.08 µg/mL
CCN1CCSC1=CC=c1sc(=Cc2oc3c4ccccc4ccc3[n+]2CC)n(CC)c1=O [Compound 390] | – | 250 | 20 | 0.08 | –
CCN1CCSC1=CC=c1sc(=Cc2oc3cc(Cl)c(Cl)cc3[n+]2CC)n(CC)c1=O [Compound 391] | 0.07 | 114 | – | – | IC50 ([3]; read-out: CV-1 (IC50)): 8 µg/mL
CCN1C(=CC=c2sc(=Cc3cc[n+](CC)c4ccccc34)n(CC)c2=O)C=Cc2ccccc21 [Compound 392] | – | 286 | – | – | CX-1 (IC50) ([1]; Table III): 0.01 µg/mL; CV-1 (IC50) [3, 12]: 20 µg/mL
CCN1C(=CC=c2sc(=Cc3cc[n+](CC)c4ccccc34)n(CC)c2=O)C=Cc2ccccc21 [Compound 393] | – | 400 | – | – | CX-1 (IC50) ([1]; Table III): 0.05 µg/mL; CV-1 (IC50) [3, 12]: 20 µg/mL
CCN1C(=CC=c2sc(=CC3=[N+](CC)CCS3)n(CC)c2=O)C=Cc2ccccc21 [Compound 394] | – | 125 | – | 0.08 | IC50 ([3]; read-out: CV-1 (IC50)): 10 µg/mL
CCN1C(=CC=c2sc(=Cc3cc[n+](CC)c4ccccc34)n(CC)c2=O)C=Cc2cc(Cl)ccc21 [Compound 395] | – | 100 | 20 | – | CX-1 (IC50) ([1]; Table III): 0.2 µg/mL
CCN1C=C(C)C=CC1=CC=c1sc(=Cc2sc3cc(C)c(C)cc3[n+]2CC)n(CC)c1=O [Compound 397] | 0.05 | 400 | 20 | – | –
CCN1C=CC=CC1=CC=c1sc(=Cc2sc3ccc4ccccc4c3[n+]2CC)n(CC)c1=O [Compound 398] | 0.04 | 400 | 16 | – | –
CCCCC[n+]1c(C=c2sc(=CC=C3SC=C(C)N3CC)c(=O)n2CC)sc2cc(OC)c(OC)cc21 [Compound 399] | – | 100 | – | 0.1 | IC50 ([3]; read-out: CV-1 (IC50)): 10 µg/mL
CCN1C(=CC=c2sc(=CC3=[N+](CC)CCS3)n(CC)c2=O)C=Cc2ccccc21 [Compound 400] | – | > 250 | > 20 | – | –
